Where two headings read alike, the source gives them in different places.
Assays:
[1] = tested on: E. coli HM22 persister cells; assay type: cell-based, Escherichia coli; conditions: for persister cells killed: 1 h in PBS, relative to untreated
[2] = tested on: E. coli HM22 normal cells; test: Killing of normal (exponential phase) cells, CFU by drop plate; assay type: cell-based, Escherichia coli; conditions: for normal cells killed: 100 μg/mL, 1 h in PBS
[3] = tested on: E. coli HM22 normal and persister cells; conditions: for intracellular accumulation, persister cells relative to normal cells: treated at 100 μg/mL, reporter bioassay
[4] = tested on: E. coli HM22; test: IC50 of killing, individual treatments vs co-treatment; assay type: cell-based; conditions: Escherichia coli, read-out: IC50 (concentration required to kill 50% of the population)
[5] = tested on: E. coli HM22 persister cells; test: Concurrent treatment with ampicillin in LB compared with ampicillin alone; assay type: cell-based, Escherichia coli; conditions: concurrent 100 μg/mL ampicillin and 100 μg/mL test antibiotic
Description: E. coli HM22 was used as the model strain in this test because it contains the hipA7 allele that leads to high-level persistence.

[6] = tested on: AcrAB-TolC mutants; test: Killing of efflux mutants compared with wild-type (in words); assay type: cell-based, Escherichia coli; conditions: normal cells of ΔacrA, ΔacrB, ΔtolC
[7] = tested on: purified 70S ribosome; conditions: read-out: IC50 (concentration of the antibiotic needed to inhibit 50% of the purified 70S ribosome); cited from earlier work
[8] = Validation of chloroform extraction (partition coefficient); conditions: concentration in chloroform phase over aqueous phase
Experimental: To validate if chloroform is effective in extracting the antibiotics after cell lysis, a validation test was performed. Briefly, 100 μL of antibiotic solution was mixed with 100 μL chloroform in a microcentrifuge tube by vortexing. Then the solution was centrifuged for 5 min at 5,000×g. […] Each phase was collected separately and evaporated overnight in a desiccator. […] The samples were then transferred to a 96-well plate where absorbance readings were measured using an Epoch 2 Microplate Spectrophotometer (BioTek, Winooski, VT, USA). […] The concentrations were then calculated by comparing with a standard curve of absorbance with known concentrations of corresponding antibiotic.

[9] = tested on: E. coli HM22 persister cells; test: Growth and CFU of treated persister cells during wake-up in LB
Experimental: At each designated time point, 1 mL of the cell culture was collected, washed with PBS, and centrifuged at a speed of 13,000 rpm for 3 min. Treated persister cells and untreated controls were washed and resuspended with LB medium supplemented with DPA, and incubated at 37° C. with shaking at 200 rpm. At each designated time point, samples were collected to quantify intracellular antibiotic concentration as described above and to determine growth by measuring OD600.

[10] = tested on: E. coli HM22 persister cells; test: LIVE/DEAD staining of persister cells during treatment and wake-up; assay type: cell-based, Escherichia coli; conditions: 100 μg/mL treated, washed
Experimental: . The present invention thus hypothesized that the killing effects took place during persister wake-up when the external antibiotic was withdrawn (after the treated cells were plated on antibiotic-free agar plates in this test). […] . […] .
Treated and untreated samples were washed once with PBS (pH 7.4). Cells were then immediately labeled with LIVE/DEAD BacLight bacterial viability kit (Life Technologies Inc., Carlsbad, CA) with a final concentration of 7.5 μM SYTO9 and 30 μM propidium iodide. After 15 min of staining, the cells were pelleted to remove the staining solution, re-suspended in PBS and vortexed briefly. Labeled cells were then imaged on microscope slides using an Axio Imager M1 fluorescence microscope (Axio Imager M1 fluorescence microscope, Carl Zeiss Inc., Berlin, Germany) with an Orca-Flash 4.0 LT camera (Hamamatsu Photonics, Hamamatsu City, Japan). At least 5 random spots were imaged for each sample. The mean gray value intensity was used to calculate the mean intensity generated from each channel (green and red). Each condition was tested with three biological replicates and 5 images were randomly taken from each sample.

[11] = tested on: E. coli HM22 normal cells; conditions: 100 μM CCCP 10 min, then 100 μg/mL minocycline 1 h
Description: Carbonyl cyanide m-chlorophenylhydrazone (CCCP) was used to depotentiate the membrane of E. coli normal cells and thus, mimic the change in membrane potential of persister cells. CCCP dissipates the PMF by allowing protons to leak across the membrane and thus inactivate efflux pumps. […] An overnight culture of E. coli HM22 was sub-cultured in LB medium supplemented with DPA with a starting OD600 of 0.05 until OD600 reached 0.3-0.45. The mid-exponential culture was collected by centrifugation at a speed of 13,000 rpm for 3 min at room temperature. […] Each experimental condition was tested with three biological replicates.

[12] = tested on: E. coli JW4364 (ΔacrA mutant); test: Killing of normal cells of efflux mutant ΔacrA; conditions: 100 μg/mL
Experimental: (§1) The mid-exponential phase cultures were collected by centrifugation at 13,000 rpm for 3 min at room temperature. The amount of cells used for each treatment was adjusted to OD600 of 0.5 in 500 μL. They were then washed with PBS (pH 7.4) three times. […] Relative viability was normalized by the untreated population. Each experimental condition was tested with five biological repeats.

[13] = tested on: E. coli JW5536 (ΔacrB mutant); test: Killing of normal cells of efflux mutant ΔacrB; conditions: 100 μg/mL
Experimental: as §1

[14] = tested on: E. coli JW5503 (ΔtolC mutant); test: Killing of normal cells of efflux mutant ΔtolC; conditions: 100 μg/mL
Experimental: as §1

[15] = after treatment at 100 μg/mL for 1 h

| SMILES | persister cells killed ([1]; 100 μg/mL) [%] | normal cells killed [2] | intracellular concentration in normal cells ([3]; after treatment at 100 μg/mL) [µg/mL] | intracellular concentration in persister cells ([3]; after treatment at 100 μg/mL) [µg/mL] | intracellular accumulation, persister cells relative to normal cells [3] [times] | intracellular concentration in normal cells [3, 15] [µg/mL] | intracellular concentration in persister cells [3, 15] [µg/mL] | IC50 [4] [µg/mL] | persister cells killed ([1]; 30 μg/mL) [%] | persister cells killed ([1]; 50 μg/mL) [%] | additional killing compared to 100 μg/mL ampicillin alone [5] [%] | also measured |
| --- | --- | --- | --- | --- | --- | --- | --- | --- | --- | --- | --- | --- |
| CO[C@H]1/C=C/O[C@@]2(C)Oc3c(C)c([O-])c4c(O)c(cc(O)c4c3C2=O)NC(=O)/C(C)=C\C=C\[C@H](C)[C@H](O)[C@@H](C)[C@@H](O)[C@@H](C)[C@H](OC(C)=O)[C@@H]1C.[Na+] [rifamycin SV] | 75.0±5.12 | did not kill | 4.3 ± 0.9 | 14.0 ± 4.5 | 3.2 |  |  |  |  |  |  |  |
| CN(C)[C@@H]1C(O)=C(C(N)=O)C(=O)[C@@]2(O)C(O)=C3C(=O)c4c(O)cccc4[C@@](C)(O)[C@H]3C[C@@H]12 [tetracycline] |  |  |  |  |  | 5.5e-06 ± 1e-07 | 1.6e-06 ± 8e-07 |  |  |  |  |  |
| CC1(C)S[C@@H]2[C@H](NC(=O)[C@H](N)c3ccccc3)C(=O)N2[C@H]1C(=O)O [ampicillin] |  |  |  |  |  |  |  | 1 |  |  |  |  |
| CN(C)[C@@H]1C(O)=C(C(N)=O)C(=O)[C@@]2(O)C(O)=C3C(=O)c4c(O)c(NC(=O)CN5CCCC5)cc(F)c4C[C@H]3C[C@@H]12 [eravacycline] | 99.9±0.03 | 63.5±15.8% | 24.2 ± 1.7 | 92.1 ± 4.4 | 3.8 |  |  | 4.8 | 50.9±7.7 | 98.2±0.5 | 99.9 | killing of persister cells in logs ([1]; 100 μg/mL): 3 log; killing of normal cells (in words) ([2]; concentrations below 100 μg/mL (0-50 μg/mL)): no significant killing; killing of efflux mutants compared to the wild-type strain (in words) [6]: more killing; IC50 [7]: 200 ± 100 nM; Partition Coefficient [8]: 3.0 ± 0.3; regrowth of treated persister cells after removal of extracellular antibiotic and adding LB (in words) ([9]; OD600 / growth): unable to resume growth; decrease of CFU of treated persister cells after removal of extracellular antibiotic and addition of nutrient ([9]; over 8 hours): 97.1±0.9% |
| CN(C)c1ccc(O)c2c1C[C@H]1C[C@H]3[C@H](N(C)C)C(O)=C(C(N)=O)C(=O)[C@@]3(O)C(O)=C1C2=O [minocycline] | 70.8±5.9 |  |  | 26.9 ± 0.7 |  | 1.04e-05 ± 2.2e-06 | 2.64e-05 ± 3.5e-06 |  | 47.8±5.3 | 59.0±6.0 | 68 | red/total fluorescence of treated persister cells ([10]; 0 min after adding LB): 20.2±3.3%; red/total fluorescence of treated persister cells ([10]; 30 min incubation with added LB): 37.9±3.0%; intracellular concentration in persister cells after wake-up ([3]; 4 h after washing the cells and adding LB medium): 26.8 ± 3.2 pg/mL; normal cells killed after CCCP pretreatment [11]: 95.9±2.5%; normal cells of ΔacrA killed [12]: 98.6±0.3%; normal cells of ΔacrB killed [13]: 99.9±0.01%; normal cells of ΔtolC killed [14]: 99.7±0.03% |

Reference: patent US20250034614A1, “PERSISTER CONTROL BY LEVERAGING DORMANCY ASSOCIATED REDUCTION OF ANTIBIOTIC EFFLUX” (Syracuse University, priority 2021, published 2025)
